Here are results for 16 compounds from US20150259331A1, “PROTOZOAN PARASITE GROWTH INHIBITORS” (Northeastern University, priority 2014, published 2015).

Read-outs that look alike come from different tables or passages of the source.

For data set [1], the system named is endocytosis of transferrin. The experiment in a line: Receptor-mediated endocytosis of transferrin in the trypanosome. It is filed as cell-based, T. brucei.
The next data set concerns T. cruzi. The experiment in a line: T. cruzi growth inhibition. It is filed as cell-based, Trypanosoma cruzi. Particulars: Trypanosoma cruzi.
The next data set relates to L. major promastigote. Put plainly: L. major promastigote assay. The following applies: Leishmania major. The data set is classed as cell-based.
Data set [2] is described as follows: HepG2 cell toxicity (MTT) assay. The data set is classed as cell-based. The following applies: human, HepG2 cells; Table 13; read-out: HepG2 TC50.
The test system of data set [3] is T. brucei brucei Lister 427. The experiment in a line: Trypanosome replication assay. Particulars: Trypanosoma brucei; for inhibition at 5 µM: read-out: Tbb % inh at 5 μM; for EC50: 48 h, values ±7%. The data set is classed as cell-based, Trypanosoma brucei brucei.
The test system of a further data set is P. fal. The experiment in a line: P. fal assay of Table 13 (strain not given). It is filed as cell-based, P. falciparum. The following applies: Plasmodium falciparum.
The test system of another data set is L. major amastigote. Put plainly: L. major amastigote assay. It is filed as cell-based. The following applies: Leishmania major.
Data set [4] is described as follows: Protein binding (Table 14). Particulars: plasma.
A short description of data set [5]: Human liver microsomes CLint. Background: Liver microsomes are vesicles of endoplasmic reticulum, rich in cytochrome P450 enzymes.
A short description of data set [6]: Male rat hepatocytes CLint.
The test system of another data set is HepG2 cells. The experiment in a line: HepG2 cell toxicity (MTT) assay. It is filed as cell-based. The following applies: Table 13; read-out: HepG2 TC50.
Data set [7] is described as follows: Thermodynamic aqueous solubility. It is filed as physicochemical.
Data set [8] concerns T. brucei brucei Lister 427. Particulars: published activities of HAT treatments and SCYX-7158; read-out: Tbb EC50; cited from earlier work.
The next data set in a line: in vitro. The following applies: male, BALB/c, mouse. The method, then: Mice plasma (BALB/c mice, male—pool of 3 animals) was collected in-house using K2EDTA as anticoagulant. […] Glipizide (Cat #50402G) was purchased from Apin chemicals, Abingdon, Oxon. Albendazole (Cat #A4673) was purchased from Sigma. Phosphate buffered saline pH 7.4 (0.1 M sodium phosphate and 0.15 M sodium chloride) and RED device inserts were procured from Thermo Scientific, Meridian Rd., Rockford, Ill.
Further 1 mM stock was diluted 200-fold in mice plasma to prepare a concentration of 5 μM. The final DMSO concentration in plasma was 0.5%.
Rapid equilibrium dialysis was performed with a rapid equilibrium dialysis (RED) device containing dialysis membrane with a molecular weight cut-off of 8,000 Daltons. Each dialysis insert contains two chambers. The red chamber is for plasma while the white chamber is for buffer. A 200 μL aliquot of warfarin or test compound at 5 μM (triplicates) was separately added to the plasma chamber and 350 μL of phosphate buffer saline (pH 7.4) was added to the buffer chamber of the inserts. After sealing the RED device with an adhesive film, dialysis was performed at 37° C. with shaking at 100 rpm for 4 hours as per manufacturer's recommendation.
Recovery and stability: A 50 μL aliquot of warfarin or test compound was added to four 0.5 mL microfuse tubes. Two aliquots were frozen immediately (0 minute sample). The other two aliquots were incubated at 37° C. for 4 hours along with the RED device.
Following dialysis, an aliquot of 50 μL was removed from each well (both plasma and buffer side) and diluted with equal volume of opposite matrix (dialyzed with the other matrix) to nullify the matrix effect. Similarly, 50 μL of buffer was added to recovery and stability samples. An aliquot of 100 μL was submitted for LC-MS/MS analysis.
A 25 μL aliquot of warfarin and test compounds were crashed with 100 μL of acetonitrile containing internal standard (glipizide for warfarin and test compound) and vortexed for 5 minutes. The samples were centrifuged at 15,000 rpm at 4° C. for 10 min and 100 μL of supernatant was submitted for LCMS/MS analysis. Samples were monitored for parent compound in MRM mode using LC-MS/MS.

The mark [9] stands for this setting: concentration giving 50% inhibition of growth of T brucei brucei Lister 427 cells, read-out: Tbb EC50.
[10] abbreviates: read-out: Tbb EC50, concentration giving 50% inhibition of growth of T brucei brucei Lister 427 cells.

Turning to `CS(=O)(=O)CCNCc1ccc(-c2ccc3ncnc(Nc4ccc(OCc5cccc(F)c5)c(Cl)c4)c3c2)o1` [Compound 1, lapatinib, reference compound], the “effect on endocytosis of transferrin” value in [1] is “inhibited endocytosis of transferrin”.

`Fc1cccc(COc2ccc(Nc3nccc4cc(-c5cccc(N6CCOCC6)c5)ccc34)cc2Cl)c1` [NEU-946, N-(3-Chloro-4-((3-fluorobenzyl)oxy)phenyl)-6-(3-morpholinophenyl)isoquinolin-1-amine]: the EC50 in the data set with T. cruzi is above 50000 nM; with L. major promastigote, above 15000 nM; in the data set on P. fal, 2800 nM; in the data set with L. major amastigote, 2200 nM. Besides, the CC50 at 48 h in [2] is above 15000 nM. Further, the inhibition at 5 µM in data set [3] was 12%.

On to `Fc1cccc(COc2ccc(Nc3nccc4ccc(-c5cccc(N6CCOCC6)c5)cc34)cc2Cl)c1` [NEU-947, N-(3-Chloro-4-((3-fluorobenzyl)oxy)phenyl)-7-(3-morpholinophenyl)isoquinolin-1-amine], for which the EC50 in the data set on T. cruzi is above 50000 nM; in the data set with L. major promastigote, above 15000 nM; with P. fal, 2500 nM; in the data set on L. major amastigote, 6000 nM. For the same compound, the CC50 at 48 h in data set [2] is above 15000 nM. The inhibition at 5 µM in data set [3] turned out to be 0.1%.

In the case of `O=S(=O)(c1ccc(-c2ccc3ccnc(Nc4ccc(OCc5ccccc5)c(Cl)c4)c3c2)cc1)N1CCOCC1` [NEU-949, N-(4-(Benzyloxy)-3-chlorophenyl)-7-(4-(morpholinosulfonyl)phenyl)isoquinolin-1-amine], the EC50 in the data set with T. cruzi is above 50000 nM; in the data set on L. major promastigote, above 15000 nM; in data set [3] (setting [9]) it was above 2500 nM; in the data set with P. fal, 870 nM; in the data set with L. major amastigote it was above 15000 nM. For the same compound, the CC50 at 48 h in data set [2] is above 15000 nM.

Consider `CN1CCN(S(=O)(=O)c2ccc(-c3ccc4c(Nc5ccc(OCc6cccc(F)c6)c(Cl)c5)ccnc4c3)cc2)CC1` [NEU-961, N-(3-Chloro-4-((3-fluorobenzyl)oxy)phenyl)-7-(4-((4-methylpiperazin-1-yl)sulfonyl)phenyl)quinolin-4-amine], for which, in data set [4], the fraction unbound (usually the share of the substance not bound to proteins or other matrix) was below 0.01. Moreover, the “Human liver microsomes median CLint” value in data set [5] amounted to 142.7 µL/min/mg. Further, the EC50 worked out at 730 nM in the data set with T. cruzi; 1000 nM in the data set on L. major promastigote; 79 nM in data set [3] (setting [9]); 19 nM in the data set on P. fal; 1600 nM in the data set with L. major amastigote. Moreover, the “Male rat hepatocytes median CLint” value in data set [6] worked out at 20.24 μl/min/1E6 cells. Also, the CC50 in the data set with HepG2 cells is above 4000 nM.

In data set [4], `CN1CCCN(S(=O)(=O)c2ccc(-c3ccc4c(Nc5ccc(OCc6cccc(F)c6)c(Cl)c5)cnnc4c3)cc2)CC1` [NEU-1017, N-(3-Chloro-4-((3-fluorobenzyl)oxy)phenyl)-7-(4-((4-methyl-1,4-diazepan-1-yl)sulfonyl)phenyl)cinnolin-4-amine] returned an unbound share (fraction unbound) below 0.01. Besides, the “Human liver microsomes median CLint” value in data set [5] amounted to 99.32 µL/min/mg. For the same compound, the EC50 in the data set with T. cruzi was 49000 nM; in the data set on L. major promastigote, 6400 nM; in data set [3] (setting [9]), 210 nM; with P. fal, 3 nM; with L. major amastigote it was 240 nM. For the same compound, the “Male rat hepatocytes median CLint” value in data set [6] worked out at 36.72 μl/min/1E6 cells. Further, the CC50 in the data set on HepG2 cells turned out to be 15000 nM. Also, the Solubility (in general, the dissolved amount per volume that the medium holds) in [7] is below 1 µM.

`O=S(=O)(c1ccc(-c2ccc3cnnc(Nc4ccc(OCc5ccccc5)c(Cl)c4)c3c2)cc1)N1CCOCC1` [NEU-1036, N-(4-(Benzyloxy)-3-chlorophenyl)-7-(4-(morpholinosulfonyl)phenyl)phthalazin-1-amine]: the EC50 in the data set on T. cruzi was above 50000 nM; in the data set on L. major promastigote, above 3400 nM; in data set [3] (setting [9]), 860 nM; in the data set with P. fal, 540 nM; in the data set with L. major amastigote, above 4000 nM. The CC50 in the data set on HepG2 cells was above 5200 nM.

`O=S(=O)(c1ccc(-c2ccc3c(Nc4ccc(OCc5ccccc5)c(Cl)c4)nncc3c2)cc1)N1CCOCC1` [NEU-1039, N-(4-(Benzyloxy)-3-chlorophenyl)-6-(4-(morpholinosulfonyl)phenyl)phthalazin-1-amine]: the EC50 with T. cruzi was above 50000 nM; in the data set with L. major promastigote it was above 15000 nM; in data set [3] (setting [9]), 990 nM; with P. fal, 110 nM; in the data set with L. major amastigote it was above 15000 nM. Besides, the CC50 in the data set on HepG2 cells was above 15000 nM.

Regarding `CN1CCN(S(=O)(=O)c2ccc(-c3ccc4c(Nc5ccc(OCc6cccc(F)c6)c(Cl)c5)nncc4c3)cc2)CC1` [NEU-1041, N-(3-Chloro-4-((3-fluorobenzyl)oxy)phenyl)-6-(4-((4-methylpiperazin-1-yl)sulfonyl)phenyl)phthalazin-1-amine, Formic Acid], the EC50 in the data set on T. cruzi was 18000 nM; in the data set with L. major promastigote, 1300 nM; in data set [3] (setting [10]), 1200 nM; with P. fal, 45 nM; in the data set with L. major amastigote, above 15000 nM. For the same compound, the CC50 in the data set with HepG2 cells was above 15000 nM.

For `CN1CCCN(S(=O)(=O)c2ccc(-c3ccc4c(Nc5ccc(OCc6cccc(F)c6)c(Cl)c5)nncc4c3)cc2)CC1` [NEU-1042, N-(3-Chloro-4-((3-fluorobenzyl)oxy)phenyl)-6-(4-((4-methyl-1,4-diazepan-1-yl)sulfonyl)phenyl)phthalazin-1-amine, Formic Acid], the EC50 in the data set on T. cruzi is 1300 nM; in the data set on L. major promastigote it was 410 nM; in data set [3] (setting [10]), 510 nM; in the data set on P. fal it was 29 nM; with L. major amastigote it was 1100 nM. Also, the CC50 in the data set on HepG2 cells was 3400 nM.

Turning to `CN1CCN(S(=O)(=O)c2ccc(-c3ccc4cnnc(Nc5ccc(OCc6cccc(F)c6)c(Cl)c5)c4c3)cc2)CC1` [NEU-1043, N-(3-Chloro-4-((3-fluorobenzyl)oxy)phenyl)-7-(4-((4-methylpiperazin-1-yl)sulfonyl)phenyl)phthalazin-1-amine, Formic Acid], the EC50 with T. cruzi is above 50000 nM; in the data set on L. major promastigote it was above 3200 nM; in [3] (setting [10]), 2000 nM; in the data set with P. fal, 130 nM; in the data set with L. major amastigote, above 4000 nM. For the same compound, the CC50 in the data set on HepG2 cells was above 5000 nM.

Regarding `CN1CCCN(S(=O)(=O)c2ccc(-c3ccc4cnnc(Nc5ccc(OCc6cccc(F)c6)c(Cl)c5)c4c3)cc2)CC1` [NEU-1044, N-(3-Chloro-4-((3-fluorobenzyl)oxy)phenyl)-7-(4-((4-methyl-1,4-diazepan-1-yl)sulfonyl)phenyl)phthalazin-1-amine, Formic Acid], the EC50 is 17000 nM in the data set on T. cruzi; above 15000 nM in the data set on L. major promastigote; 620 nM in data set [3] (setting [10]); 94 nM in the data set with P. fal; 5600 nM with L. major amastigote. The CC50 in the data set on HepG2 cells was 14000 nM.

In the case of `CC1(C)OB(O)c2cc(NC(=O)c3ccc(F)cc3C(F)(F)F)ccc21` [SCYX-7158], the EC50 in [8] is 794 nM.

In turn, `CC(=O)CC(c1ccccc1)c1c(O)c2ccccc2oc1=O` (centres unmarked) [Warfarin] registered a recovery at 4 h, 5 μM in “in vitro” (pH 7.4) of 95%. Moreover, in “in vitro” (plasma, 4 h, 5 μM), the “% compound remaining at 4 h” value is recorded as 100%. Moreover, the fraction unbound at 4 h, 5 μM in the data set “in vitro” (plasma, pH 7.4, % Bound Mean (SD)) was 0.156; in “in vitro” (plasma, pH 7.4, % Bound R1), 0.051; in the data set “in vitro” (plasma, pH 7.4, % Bound R2) it was 0.058; in the data set “in vitro” (plasma, pH 7.4, % Bound R3) it was 0.059.

Turning to `Nc1nc(N)nc(Nc2ccc([As]3SCC(CO)S3)cc2)n1` (centres unmarked) [melarsoprol], the EC50 in data set [8] was 6.3 nM.

On to `N=C(N)c1ccc(OCCCCCOc2ccc(C(=N)N)cc2)cc1` [pentamidine], for which the EC50 in [8] is 3.5 nM.
